{"source": "patent US8748415B2", "about": "(priority 2011, dated 2014)", "test_system": "recombinant NL4-3 virus (Renilla luciferase in nef, Gag P373S)", "assay": "HIV cell culture assay (luciferase activity in MT-2 cells infected with NLRluc recombinant virus)", "assay_type": "cell-based", "details": "NL43, MT-2 cells infected 4-5 days with NLRluc recombinant virus", "summary_of_the_method": "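Activity was read as luciferase output (Dual Luciferase reagents premixed with lysis solution) after 4–5 days of infection in serially diluted inhibitor. Host cells were MT-2 in 10% FBS RPMI. The reporter virus came from transfected 293T cells and was titered on MT-2.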", "data": [{"smiles": "C=C(C)[C@@H]1CC[C@]2(CNC(=O)OCCN3CCCC3=O)CC[C@]3(C)[C@H](CC[C@@H]4[C@@]5(C)CC=C(c6ccc(C(=O)O)cc6)C(C)(C)[C@@H]5CC[C@]43C)[C@@H]12", "note": "[Example 162, 4-((1R,3aS,5aR,5bR,7aR,11aS,11bR,13aR,13bR)-5a,5b,8,8,11a-pentamethyl-3a-(((2-(2-oxopyrrolidin-1-yl)ethoxy)carbonylamino)methyl)-1-(prop-1-en-2-yl)-2,3,3a,4,5,5a,5b,6,7,7a,8,11,11a,11b,12,13,13a,13b-octadecahydro-1H-cyclopenta[a]chrysen-9-yl)benzoic acid]", "values": [{"measurement": "EC50", "setting": "class symbol", "result": "< 100", "unit": "nM"}]}, {"smiles": "C=C(C)[C@@H]1CC[C@]2(CNCCC(=O)N3CCSCC3)CC[C@]3(C)[C@H](CC[C@@H]4[C@@]5(C)CC=C(c6ccc(C(=O)O)cc6)C(C)(C)[C@@H]5CC[C@]43C)[C@@H]12", "note": "[Example 122, 4-((1R,3aS,5aR,5bR,7aR,11aS,11bR,13aR,13bR)-5a,5b,8,8,11a-pentamethyl-3a-((3-oxo-3-thiomorpholinopropylamino)methyl)-1-(prop-1-en-2-yl)-2,3,3a,4,5,5a,5b,6,7,7a,8,11,11a,11b,12,13,13a,13b-octadecahydro-1H-cyclopenta[a]chrysen-9-yl)benzoic acid]", "values": [{"measurement": "EC50", "setting": "class symbol", "result": "< 100", "unit": "nM"}]}, {"smiles": "C=C(C)[C@@H]1CC[C@]2(CNCCCC(=O)N3CCS(=O)(=O)CC3)CC[C@]3(C)[C@H](CC[C@@H]4[C@@]5(C)CC=C(c6ccc(C(=O)O)cc6)C(C)(C)[C@@H]5CC[C@]43C)[C@@H]12", "note": "[Example 54, 4-((1R,3aS,5aR,5bR,7aR,11aS,11bR,13aR,13bR)-3a-(((4-(1,1-dioxido-4-thiomorpholinyl)-4-oxobutyl)amino)methyl)-1-isopropenyl-5a,5b,8,8,11a-pentamethyl-2,3,3a,4,5,5a,5b,6,7,7a,8,11,11a,11b,12,13,13a,13b-octadecahydro-1H-cyclopenta[a]chrysen-9-yl)benzoic acid]", "values": [{"measurement": "EC50", "setting": "class symbol", "result": "< 100", "unit": "nM"}]}, {"smiles": "C=C(C)[C@@H]1CC[C@]2(CNCCn3ccnc3)CC[C@]3(C)[C@H](CC[C@@H]4[C@@]5(C)CC=C(c6ccc(C(=O)O)cc6)C(C)(C)[C@@H]5CC[C@]43C)[C@@H]12", "note": "[Example 20, 4-((1R,3aS,5aR,5bR,7aR,11aS,11bR,13aR,13bR)-3a-((2-(1H-imidazol-1-yl)ethylamino)methyl)-5a,5b,8,8,11a-pentamethyl-1-(prop-1-en-2-yl)-2,3,3a,4,5,5a,5b,6,7,7a,8,11,11a,11b,12,13,13a,13b-octadecahydro-1H-cyclopenta[a]chrysen-9-yl)benzoic acid]", "values": [{"measurement": "EC50", "setting": "class symbol", "result": "< 100", "unit": "nM"}]}, {"smiles": "C=C(C)[C@@H]1CC[C@]2(CNCCc3ccccn3)CC[C@]3(C)[C@H](CC[C@@H]4[C@@]5(C)CC=C(c6ccc(C(=O)O)cc6)C(C)(C)[C@@H]5CC[C@]43C)[C@@H]12", "note": "[Example 5, 4-((1R,3aS,5aR,5bR,7aR,11aS,11bR,13aR,13bR)-5a,5b,8,8,11a-pentamethyl-1-(prop-1-en-2-yl)-3a-((2-(pyridin-2-yl)ethylamino)methyl)-2,3,3a,4,5,5a,5b,6,7,7a,8,11,11a,11b,12,13,13a,13b-octadecahydro-1H-cyclopenta[a]chrysen-9-yl)benzoic acid]", "values": [{"measurement": "EC50", "setting": "numeric value", "result": 20, "unit": "nM"}]}, {"smiles": "C=C(C)[C@@H]1CC[C@]2(CNCC(C)CN3CCCC3=O)CC[C@]3(C)[C@H](CC[C@@H]4[C@@]5(C)CC=C(c6ccc(C(=O)O)cc6)C(C)(C)[C@@H]5CC[C@]43C)[C@@H]12", "note": "(stereo partly drawn) [Example 79, 4-((1R,3aS,5aR,5bR,7aR,11aS,11bR,13aR,13bR)-5a,5b,8,8,11a-pentamethyl-3a-((2-methyl-3-(2-oxopyrrolidin-1-yl)propylamino)methyl)-1-(prop-1-en-2-yl)-2,3,3a,4,5,5a,5b,6,7,7a,8,11,11a,11b,12,13,13a,13b-octadecahydro-1H-cyclopenta[a]chrysen-9-yl)benzoic acid]", "values": [{"measurement": "EC50", "setting": "class symbol", "result": "< 100", "unit": "nM"}]}, {"smiles": "C=C(C)[C@@H]1CC[C@]2(CNC(=O)CN3CCS(=O)(=O)CC3)CC[C@]3(C)[C@H](CC[C@@H]4[C@@]5(C)CC=C(c6ccc(C(=O)O)cc6)C(C)(C)[C@@H]5CC[C@]43C)[C@@H]12", "note": "[Example 145, 4-((1R,3aS,5aR,5bR,7aR,11aS,11bR,13aR,13bR)-3a-((((1,1-dioxido-4-thiomorpholinyl)acetyl)amino)methyl)-1-isopropenyl-5a,5b,8,8,11a-pentamethyl-2,3,3a,4,5,5a,5b,6,7,7a,8,11,11a,11b,12,13,13a,13b-octadecahydro-1H-cyclopenta[a]chrysen-9-yl)benzoic acid]", "values": [{"measurement": "EC50", "setting": "class symbol", "result": "< 100", "unit": "nM"}]}, {"smiles": "C=C(C)[C@@H]1CC[C@]2(CNCCCN3CCCC3CO)CC[C@]3(C)[C@H](CC[C@@H]4[C@@]5(C)CC=C(c6ccc(C(=O)O)cc6)C(C)(C)[C@@H]5CC[C@]43C)[C@@H]12", "note": "(stereo partly drawn) [Example 74, 4-((1R,3aS,5aR,5bR,7aR,11aS,11bR,13aR,13bR)-3a-((3-(2-(hydroxymethyl)pyrrolidin-1-yl)propylamino)methyl)-5a,5b,8,8,11a-pentamethyl-1-(prop-1-en-2-yl)-2,3,3a,4,5,5a,5b,6,7,7a,8,11,11a,11b,12,13,13a,13b-octadecahydro-1H-cyclopenta[a]chrysen-9-yl)benzoic acid]", "values": [{"measurement": "EC50", "setting": "class symbol", "result": "< 100", "unit": "nM"}]}, {"smiles": "C=C(C)[C@@H]1CC[C@]2(CNCCCN3CCOCC3)CC[C@]3(C)[C@H](CC[C@@H]4[C@@]5(C)CC=C(c6ccc(C(=O)O)cc6)C(C)(C)[C@@H]5CC[C@]43C)[C@@H]12", "note": "[Example 2, 4-((1R,3aS,5aR,5bR,7aR,11aS,11bR,13aR,13bR)-5a,5b,8,8,11a-pentamethyl-3a-((3-morpholinopropylamino)methyl)-1-(prop-1-en-2-yl)-2,3,3a,4,5,5a,5b,6,7,7a,8,11,11a,11b,12,13,13a,13b-octadecahydro-1H-cyclopenta[a]chrysen-9-yl)benzoic acid]", "values": [{"measurement": "EC50", "setting": "class symbol", "result": "< 100", "unit": "nM"}]}, {"smiles": "C=C(C)[C@@H]1CC[C@]2(CNCCNCCO)CC[C@]3(C)[C@H](CC[C@@H]4[C@@]5(C)CC=C(c6ccc(C(=O)O)cc6)C(C)(C)[C@@H]5CC[C@]43C)[C@@H]12", "note": "[Example 62, 4-((1R,3aS,5aR,5bR,7aR,11aS,11bR,13aR,13bR)-3a-((2-(2-hydroxyethylamino)ethylamino)methyl)-5a,5b,8,8,11a-pentamethyl-1-(prop-1-en-2-yl)-2,3,3a,4,5,5a,5b,6,7,7a,8,11,11a,11b,12,13,13a,13b-octadecahydro-1H-cyclopenta[a]chrysen-9-yl)benzoic acid]", "values": [{"measurement": "EC50", "setting": "class symbol", "result": "< 100", "unit": "nM"}]}, {"smiles": "C=C(C)[C@@H]1CC[C@]2(CNCCC(=O)N3CCCC3)CC[C@]3(C)[C@H](CC[C@@H]4[C@@]5(C)CC=C(c6ccc(C(=O)O)c(F)c6)C(C)(C)[C@@H]5CC[C@]43C)[C@@H]12", "note": "[Example 90, 2-fluoro-4-((1R,3aS,5aR,5bR,7aR,11aS,11bR,13aR,13bR)-5a,5b,8,8,11a-pentamethyl-3a-((3-oxo-3-(pyrrolidin-1-yl)propylamino)methyl)-1-(prop-1-en-2-yl)-2,3,3a,4,5,5a,5b,6,7,7a,8,11,11a,11b,12,13,13a,13b-octadecahydro-1H-cyclopenta[a]chrysen-9-yl)benzoic acid]", "values": [{"measurement": "EC50", "setting": "class symbol", "result": "< 100", "unit": "nM"}]}, {"smiles": "C=C(C)[C@@H]1CC[C@]2(CN(CCCN3CCS(=O)(=O)CC3)C(=O)CCC(=O)NS(=O)(=O)C3CC3)CC[C@]3(C)[C@H](CC[C@@H]4[C@@]5(C)CC=C(c6ccc(C(=O)O)cc6)C(C)(C)[C@@H]5CC[C@]43C)[C@@H]12", "note": "[Example 173, 4-((1R,3aS,5aR,5bR,7aR,11aS,11bR,13aR,13bR)-3a-(((4-((cyclopropylsulfonyl)amino)-4-oxobutanoyl)(3-(1,1-dioxido-4-thiomorpholinyl)propyl)amino)methyl)-1-isopropenyl-5a,5b,8,8,11a-pentamethyl-2,3,3a,4,5,5a,5b,6,7,7a,8,11,11a,11b,12,13,13a,13b-octadecahydro-1H-cyclopenta[a]chrysen-9-yl)benzoic acid]", "values": [{"measurement": "EC50", "setting": "class symbol", "result": "< 100", "unit": "nM"}]}, {"smiles": "C=C(C)[C@@H]1CC[C@]2(CN[C@@H](CC(=O)O)C(=O)N3CCS(=O)(=O)CC3)CC[C@]3(C)[C@H](CC[C@@H]4[C@@]5(C)CC=C(c6ccc(C(=O)O)cc6)C(C)(C)[C@@H]5CC[C@]43C)[C@@H]12", "note": "[Example 132, 4-thiomorpholinebutanoic acid, 4-((1R,3aS,5aR,5bR,7aR,11aS,11bR,13aR,13bR)-3a-((((1S)-1-(carboxymethyl)-2-(1,1-dioxido-4-thiomorpholinyl)-2-oxoethyl)amino)methyl)-1-isopropenyl-5a,5b,8,8,11a-pentamethyl-2,3,3a,4,5,5a,5b,6,7,7a,8,11,11a,11b,12,13,13a,13b-octadecahydro-1H-cyclopenta[a]chrysen-9-yl)benzoic acid]", "values": [{"measurement": "EC50", "setting": "class symbol", "result": "< 100", "unit": "nM"}]}, {"smiles": "C=C(C)[C@@H]1CC[C@]2(CNCCC(=O)N3CCC[C@H]3C(=O)O)CC[C@]3(C)[C@H](CC[C@@H]4[C@@]5(C)CC=C(c6ccc(C(=O)O)cc6)C(C)(C)[C@@H]5CC[C@]43C)[C@@H]12", "note": "[Example 102, (S)-1-(3-(((1R,3aS,5aR,5bR,7aR,11aS,11bR,13aR,13bR)-9-(4-carboxyphenyl)-5a,5b,8,8,11a-pentamethyl-1-(prop-1-en-2-yl)-2,3,3a,4,5,5a,5b,6,7,7a,8,11,11a,11b,12,13,13a,13b-octadecahydro-1H-cyclopenta[a]chrysen-3a-yl)methylamino)propanoyl)pyrrolidine-2-carboxylic acid]", "values": [{"measurement": "EC50", "setting": "class symbol", "result": "< 100", "unit": "nM"}]}, {"smiles": "C=C(C)[C@@H]1CC[C@]2(CNC(=O)OCCN3CCNCC3)CC[C@]3(C)[C@H](CC[C@@H]4[C@@]5(C)CC=C(c6ccc(C(=O)O)cc6)C(C)(C)[C@@H]5CC[C@]43C)[C@@H]12", "note": "[Example 163, 4-((1R,3aS,5aR,5bR,7aR,11aS,11bR,13aR,13bR)-5a,5b,8,8,11a-pentamethyl-3a-(((2-(piperazin-1-yl)ethoxy)carbonylamino)methyl)-1-(prop-1-en-2-yl)-2,3,3a,4,5,5a,5b,6,7,7a,8,11,11a,11b,12,13,13a,13b-octadecahydro-1H-cyclopenta[a]chrysen-9-yl)benzoic acid]", "values": [{"measurement": "EC50", "setting": "class symbol", "result": "< 100", "unit": "nM"}]}]}
